These results are taken from patent US8187573B2, “In vivo detection of apoptosis” (priority 2005, dated 2012).

“Also recorded” adds a separate entry of the source.

The test system of data set [1] is Spleen, Liver, Thymus, and CNS tissues. In words: In vivo detection of morphine-mediated apoptosis: apoptosis positive cell counts in tissue sections after IV FAM-VAD-FMK. The following applies: bone marrow and liver tissues (conclusion).
Experimental: Spleen, Liver, Thymus, and CNS tissues were isolated from different treatment groups, frozen and mounted on glass slides. The various cell types were adjusted to 1×10^6 cells/mL and cytospun on a glass slide for analysis by fluorescence microscopy. Sections were photographed and analyzed by MetaMorph analysis program for apoptosis positive cell counts. Counts were analyzed by statistics software.
Spleen, Liver, Thymus, and CNS tissues were isolated from different treatment groups, frozen and mounted on glass slides. Sections were photographed and analyzed by MetaMorph analysis program for apoptosis positive cell counts. Counts were analyzed by statistics software.
Data set [2] relates to SCK mammary tumors. In words: SCK mammary tumor window chamber model, bright-field imaging of hemorrhaging. Type of data set: in vivo, A/J mice. The following applies: 8.0 mg/kg ATO. How it is done:
(§1) Using a mouse window chamber model, SCK mammary tumors were evaluated for levels of apoptosis induction in tumors following irradiation treatment with arsenic trioxide (ATO) and heat. A window chamber, used for viewing tumors, was placed over a fold of skin in A/J mice. 2×10^5 SCK mammary carcinoma cells were injected into the skin fold. The tumors were allowed to grow for 7 to 9 days. In the test mice, tumors were irradiated with 20 Gy, 8 mg/kg ATO and 2 hours later the tumors were heated at 41.5° C. for 60 minutes. Control mice were not treated with irradiation or heat and a placebo was injected instead of ATO.
(§2) After allowing the tumors to grow 7 days, the test mice were first irradiated with 20 Gy. This was immediately followed by an intraperitoneal (I.P.) injection of ATO. The ATO was dissolved in water and injected in a solution of PBS with 5% w/v of dextrose at a concentration of 8 mg/kg. After 2 hours the tumors were heated at 41.5° C. for 60 minutes. Control mice received an I.P. injection of PBS with 5% dextrose.
Prior to treatment, tumors were examined in control mice and designated test mice. Low magnification bright-field image composite photographs of SCK mammary tumors taken through a window chamber reveal a low level of hemorrhaging in all tumors (FIG. 1). […]

The subject of data set [3] is SCK mammary tumors. In words: SCK mammary tumor window chamber model, in vivo apoptosis imaging with FAM-VAD-FMK (488 nm, FITC filter). The following applies: 8.0 mg/kg ATO, 8 μg FAM-VAD-FMK IV, 30 min circulation. Further details: species or system A/J mice. How it is done: as §1, §2
Apoptosis was detected by injecting the in vivo apoptosis detection reagent FAM-VAD-FMK into the tail vein of control and test mice. […]
Control mice were given FAM-VAD-FMK injections following placebo injections. […] Test mice that received ATO treatment were given FAM-VAD-FMK injections at 3 hours and 24 hours after ATO treatment, and apoptosis was evaluated as before. […]

Data set [4] relates to SCK tumor cells. In words: Flow cytometry of cells from SCK tumors after in vivo FAM-VAD-FMK labelling. Details: species or system mouse. Particulars: 8.0 mg/kg ATO. How it is done:
In another set of mice, the tumors were allowed to grow for 7 days. Control mice received placebo injections as before and test mice received ATO injections as before. After 24 hours all mice received I.V. injections of FAM-VAD-FMK as before. The in vivo apoptosis detection and imaging reagent was allowed to circulate through each mouse for 30 minutes. After imaging tumor-associated apoptosis in vivo, tumor tissue was collected from the window chamber by scraping the tumor out of the chamber into a trypsin solution, stirring for 30 minutes with 10 μg/ml DNase and 5 μg/ml collagenase, filtering the suspension using a […] cell strainer. Flow cytometry was then performed using a FACS Caliber flow cytometer (Becton Dickinson Immunocytometry System, San Jose, Calif.) for the analysis of apoptosis in the cell population obtained from the window chamber. All data was acquired with an event acquisition set for 10,000 events. Data was analyzed using CellQuest Pro cytometer software.

The test system of data set [5] is FSaII murine fibrosarcoma tumors. In words: Longitudinal apoptosis imaging of FSaII tumor in dorsal skin flap chamber (DSFC) with FAM-VAD-FMK. It is filed as in vivo, nu/nu mice. How it is done: A longitudinal study was performed in nu/nu mice to assess the efficacy of arsenic trioxide (ATO) on FSaII murine fibrosarcoma tumors before and after ATO treatment through a window chamber.
Dorsal skin flap chambers (DSFC) were surgically implanted into the backs of nu/nu mice as follows. Entire implantation procedure was conducted within a laminar flow hood to preserve a sterile field. Skin was washed twice with betadine and allowed to dry. One sterilized chamber piece containing a round window (9 mm) was placed on one side of the dorsal skin fold. Holes for three connecting screws were made through the skin fold connecting with another chamber piece with a similar window. The assembly was then tightened together with screws and nuts through the chamber piece spacers. A circle of cutaneous tissue and fascia was carefully cut away from the skin fold inside the DSFC window, exposing the blood vessels of the subcutaneous tissue adjacent to the striated muscles of the opposing skin fold. Antibiotic ointment (bacitracin zinc/polymyxin B sulfate/neomycin sulfate) was used on the edges of the wound inside the DSFC window. A glass window was placed in the chamber to cover the exposed tissue and secured with a snap C-ring. The surgical wound procedure was then repeated in the opposite DSFC window so that a very thin, transparent layer of fascia and vessels remained visible through both windows (created to facilitate microscope light transmission through the tissue). Finally, the chamber was sutured to the skin.
After surgery, the animals were housed in barrier cages inside a humidified incubator maintained at 32° C. with unrestricted access to food and water. To minimize risk of infection, all mice were given amoxicillin in their drinking water (250 mg per 5 mL water) after DSFC implantation and throughout the experiment.
Tumor cells were implanted into one side of the chamber by temporary removal of the C-ring and glass cover slip. […]

With `CN1CC[C@]23c4c5ccc(O)c4O[C@H]2[C@@H](O)C=C[C@H]3[C@H]1C5` [Morphine, morphine], the “enhancement of apoptosis of LPS activated cells” value in data set [1] was “enhanced apoptosis of LPS activated cells”.

Regarding arsenic trioxide [ATO], the “level of hemorrhaging in tumor” value is given as “Increased levels of hemorrhaging” in data set [2] (3 hours after completion of treatment, vs placebo control) and “amount of hemorrhaging has also increased over time” in data set [2] (24 hours after completion of treatment, vs 3 hour photograph). In addition, the “level of apoptosis in tumor (fluorescence)” value in data set [3] (3 hours post ATO) is given as “substantial increase in the level of apoptosis; also recorded: high level of apoptosis”; in data set [3] (24 hours post ATO), “even higher; also recorded: higher level of apoptosis”. In addition, the “apoptotic cells (apoptosis induction rate)” value in data set [4] (24 hours after treatment, flow cytometry, 10,000 events, control mouse 18%) was found to be 39%. Besides, the “increase in apoptosis versus control mouse” value in data set [4] (24 hours, flow cytometry) is recorded as “two-fold increase”. Further, the “level of apoptosis in tumor (fluorescence, 10×)” value in data set [5] (8.0 mg/kg ATO IP, 3 hours post ATO, 12.0 μg FAM-VAD-FMK IV, 45 min, same tumor before vs after) was “significant level of apoptosis; also recorded: increase in apoptosis within the tumor is clear”.

Turning to “carboxyfluorescein-valanyl-alanyl-aspartyl(O-methyl)-fluoromethyl ketone [FAM-VAD-FMK]”, the “in vivo detection of apoptosis in living tissue” value in data set [5] (IV injection) was “works for the in vivo detection of apoptosis”. In addition, in data set [5] (IV injection, repeated in the same animal), the “side-effects of the reagent in longitudinal studies” value was “no side-effects”.
